Results on 55 molecules are retold here after PubChem BioAssay AID2742 (NMMLSC, 2010).

The assay can be described thus: modulators of MEP2-GFP levels in yeast, dose response, S. cerevisiae, flow cytometry GFP, MLPCN hits (AID 2742).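 Note: GFP tag reports level of MEP2 protein as a downstream target of TOR signalling.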 Conditions: S. cerevisiae MEP2-GFP strain, flow cytometry fluorescence, 3 h; at 33 µM (top of the series).

SMILES strings stand for the structures. Several values for one entry are separate records, joined by “and”; a condition that tells them apart may be missing. Equal entries are not always repeated. Activity calls are given as the source filed them.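 Rule for the calls: active = fitted half-maximal concentration for changing background-corrected GFP signal at or below a set limit; inactive = the rest.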

With `COC(=O)CCC(=O)OC1(C)C(=O)C2=COC(c3ccc(OC)cc3)=CC2=C(Br)C1=O` (stereo not given), the GFP fluorescence (kMESF), higher = increase is 0.26 kMESF (inactive). Next, `Clc1ccc(N=c2ssnc2Cl)cc1`: 4.8 kMESF (inactive); `Cc1ccc(S(=O)(=O)N2CC(C(=O)O)=CC[C@H]2c2ccc(Cl)cc2)cc1`: 3.69 kMESF (inactive). Next, `CN(C)c1ccc(/C=C/c2cc[n+](C)cc2)cc1`: 2.76 kMESF (inactive); `O=C(/C=C/c1ccccc1)c1cc(Br)ccc(=O)c1O`: -11.3 kMESF (inactive); `Oc1c(Br)cc(Br)cc1C=Nc1ccc2c(c1)OCO2`: 5.35 kMESF (inactive). Turning to `c1ccc(-c2csc(Nc3cccnc3)n2)nc1`, the GFP fluorescence (kMESF), higher = increase is 1.4 kMESF (inactive). The figure for `CCc1ccc(/C=C/C(=O)c2cc(Br)ccc(=O)c2O)cc1` is 5.16 kMESF (inactive); for `O=C1c2cccc3c([N+](=O)[O-])ccc(c23)C(=O)N1CCc1ccccn1` it is 5.48 kMESF (inactive). Next, `Cc1cccc(C(=O)NNC(=S)NC(=O)c2ccccc2)c1`: 5.31 kMESF (inactive). As for `O=C(NOC(=O)c1ccccc1)c1ccccc1`, the GFP fluorescence (kMESF), higher = increase is 5.42 kMESF (inactive). The figure for `Cc1cccc2c1NC(=O)/C2=C\C(=O)c1cccs1` is 4.26 kMESF (inactive); for `CC(=O)N(\C=C/C=C/C=C1\Sc2ccccc2C1=O)c1ccccc1` it is 8.76 kMESF (inactive); for `Cc1ccc(/C=C2\SC(=S)N(Cc3ccccc3)C2=O)o1` it is 9.98 kMESF (inactive). The figure for `CC(Oc1ccc(Br)cc1)C(=O)Nc1nc(-c2ccccn2)cs1` (stereo not given) is 4.68 kMESF (inactive). With `C/C(=N/NC(=O)c1ccc(C(C)(C)C)cc1)c1ccccn1`, the GFP fluorescence (kMESF), higher = increase is 5.35 kMESF (inactive). Next, `O=C(Oc1cccc2cccnc12)c1ccc(Br)o1`: 1.82 kMESF (inactive); `Cc1cc(S(=O)(=O)ON2C(=O)c3ccccc3C2=O)ccc1F`: 4.9 kMESF (inactive). Next, `CN(C)/C=C/C(=O)c1ccc(-c2ccc(Cl)cc2Cl)o1`: 2 kMESF (inactive); `O=C1Nc2ccc(Br)cc2/C1=C/C(=O)c1ccc2c(c1)OCO2`: 4.66 kMESF (inactive); `COc1ccccc1N1C(=O)c2cccc3c(C(=O)O)ccc(c23)C1=O`: 3.03 kMESF (inactive). Next, `Oc1cc(-c2ccc(N3CCCCC3)nc2)cc2cccnc12`: 3.04 kMESF (inactive); `Cc1ccc(N2C(=O)C(Cl)=C(Nc3c(C)n(C)n(-c4ccccc4)c3=O)C2=O)cc1`: 1.97 kMESF (inactive); `O=C(Nc1nc(-c2ccccn2)cs1)C1COc2ccccc2O1` (stereo not given): 5.21 kMESF (inactive). As to `Cc1ccsc1/C=C1\C(=O)NC(=S)N(C)C1=O`, the GFP fluorescence (kMESF), higher = increase was 3.66 kMESF (inactive). The figure for `Cc1nc2ccc(NC(=O)c3oc4ccc(F)cc4c3C)cc2s1` is 2.07 kMESF (inactive); for `O=C(c1ccc(Cl)cc1)N1CCN(c2cccc3[nH]ccc23)CC1` it is 3.33 kMESF (inactive); for `O=S(=O)(/N=C(\Sc1ccc(Cl)cc1)c1ccccc1)c1ccccc1` it is 4.33 kMESF (inactive). Next, `Cc1ccc(/C=C2/C(=O)ON=C2c2ccccc2)o1`: 3.11 kMESF (inactive); `O=C(/C=C/c1cc(Br)ccc1O)c1ccco1`: 6.67 kMESF (inactive). The figure for `CC(C)[C@@]1(c2ccccc2)ON(c2ccccc2C(F)(F)F)C1=O` is 2.37 kMESF (inactive); for `CCCCC(=O)NNC(=S)NC(=O)c1ccc(C)cc1` it is 4.34 kMESF (inactive); for `O=S(=O)(/N=C(/Sc1ccccc1)c1ccccc1)c1ccccc1` it is 4.43 kMESF (inactive).

With `COc1cccc(N=Cc2nc(-c3ccccc3)oc2OC(C)=O)c1`, the GFP fluorescence (kMESF), higher = increase is 3.64 kMESF (inactive). In the case of `CCC1(c2ccccc2)ON(c2c(Br)cccc2Br)C1=O` (stereo not given), the GFP fluorescence (kMESF), higher = increase is 3.17 kMESF (inactive). The figure for `CC(C)[C@]1(c2ccc(Cl)cc2)ON(c2ccccc2C(F)(F)F)C1=O` is 2.37 kMESF (inactive); for `O=C(Nc1nnc(-c2ccc(Cl)cc2)o1)c1ccccc1Br` it is 4.01 kMESF (inactive). The figure for `Cc1[nH]n(-c2ncc(-c3ccccc3)s2)c(=O)c1C(c1ccc(Cl)cc1)C(C#N)C#N` (stereo not given) is 4.02 kMESF (inactive); for `CC(=O)SC(C[N+](=O)[O-])c1cn(C(C)=O)c2ccccc12` (stereo not given) it is 6.37 kMESF (inactive); for `Cc1cc(C)c(OCC(=O)Nc2nc(-c3ccccn3)cs2)c(C)c1` it is 2.37 kMESF (inactive). The figure for `O=C(NNC(=S)NC(=O)c1ccco1)c1ccc(F)cc1` is 4.11 kMESF (inactive); for `COc1ccccc1N=Cc1nc(-c2ccccc2)oc1OC(C)=O` it is 4.52 kMESF (inactive); for `C=CCN1C(=O)/C(=C/c2ccc(-c3ccc(F)cc3)o2)SC1=S` it is 8.29 kMESF (inactive). On to `O=C1C=CC(=O)N1c1ccc(O)cc1`, for which the GFP fluorescence (kMESF), higher = increase is 6.77 kMESF (inactive). Next, `O=C1NC(=O)N(Cc2ccco2)C(=O)/C1=C/c1ccc(-c2cccc([N+](=O)[O-])c2)o1`: 4.33 kMESF (inactive); `CN(C)C(=O)Oc1ccnc2cc(Cl)ccc12`: 3.58 kMESF (inactive); `COc1ccc(-c2cc3cc(C(=O)O)ccn3c2C(=O)c2ccccc2)cc1`: 3.23 kMESF (inactive).

As for `COc1ccc(-c2cc3nc4n(c(=O)c3s2)CCC4)cc1`, the GFP fluorescence (kMESF), higher = increase is 1.07 kMESF (inactive). Regarding `C=CCn1c(C)c(/C=C/c2cc[n+](C)cc2)c2ccccc21`, the GFP fluorescence (kMESF), higher = increase was 5.92 kMESF (inactive). Next, `CN(Cc1cnc2nc(N)nc(N)c2n1)c1ccc(C(=O)N[C@@H](CCC(=O)O)C(=O)O)cc1`: 2.67 kMESF (inactive) and 1.92 kMESF (inactive); `O=c1oc2cc(Oc3c([N+](=O)[O-])cc(C(F)(F)F)cc3[N+](=O)[O-])ccc2c2c1CCCC2`: 4.77 kMESF (inactive); `O=C(CCS(=O)(=O)c1ccccc1)Nc1nc(-c2ccccn2)cs1`: 1.34 kMESF (inactive).

For the molecule `CCCOc1ccc(C(=O)NNC(=S)NC(=O)c2ccco2)cc1`, the GFP fluorescence (kMESF), higher = increase was 4.58 kMESF (inactive).

With `COc1ccc(C=C2C(=O)c3ccccc3C2=O)cc1O`, the GFP fluorescence (kMESF), higher = increase is 2.67 kMESF (inactive). As for `O=C(Nc1ccccc1)c1nnsc1S(=O)(=O)c1ccc(Cl)cc1`, the GFP fluorescence (kMESF), higher = increase was 6.03 kMESF (inactive).
